Experimental data from patent publication US20240067693A1, “POLYPEPTIDES AND USES THEREOF” (MEDIMMUNE LIMITED, priority 2020, published 2024).
Numbered stars: 1 amine (or outer) side, 2 acyl side, 3 side chain; on linkers, the order of the positions; unused ones are H or OH. Bridge positions count the residues as written; N and C are the ends. Square brackets hold non-standard residues; d marks the D form. Side chains are listed from the residue outwards. Peptide text beside a SMILES is read from it. * marks the point of attachment. C18 diacid = O=C(O)CCCCCCCCCCCCCCCCC(=O)*; γGlu = O=C(O)[C@H](CCC(=O)[*:2])N[*:1]; Aib = CC(C)(N)C(=O)O

Tests used:
[1] = biological target: T1, human calcitonin receptor (hCTR) (Homo sapiens, UniProt P30988); assay: cAMP production in 1321N1 cells with stable recombinant expression of human calcitonin receptor (hCTR); assay type: cell-based; details: cAMP, 1321N1 cells, assay buffer with 0.1% BSA; read-out: EC50 (pM) hCTR
T1 construct: expressed in transfected cells
T1 sequence (P30988 25-474): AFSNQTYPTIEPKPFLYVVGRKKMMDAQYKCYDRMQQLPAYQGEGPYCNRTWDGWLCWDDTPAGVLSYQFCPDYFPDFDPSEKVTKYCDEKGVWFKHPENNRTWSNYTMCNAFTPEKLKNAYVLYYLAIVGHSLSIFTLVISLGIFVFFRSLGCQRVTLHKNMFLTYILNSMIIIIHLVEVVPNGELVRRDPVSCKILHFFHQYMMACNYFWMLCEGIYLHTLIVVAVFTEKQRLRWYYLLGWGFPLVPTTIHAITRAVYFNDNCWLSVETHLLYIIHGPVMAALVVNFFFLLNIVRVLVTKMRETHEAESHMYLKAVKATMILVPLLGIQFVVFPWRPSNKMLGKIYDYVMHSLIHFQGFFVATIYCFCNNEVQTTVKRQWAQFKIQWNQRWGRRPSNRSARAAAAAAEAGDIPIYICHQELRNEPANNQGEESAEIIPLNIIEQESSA
Procedure, shortened: (§1)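 EC50 values come from 4-parameter logistic fits of HTRF cAMP signal, normalised to maximal calcitonin or amylin effect. Peptides were tested in duplicate for 30 min at RT in IBMX-containing (0.5 mM) BSA/HEPES buffer pH 7.4 on stable 1321N1 (human CTR, AMYR3) or HEK (rat CTR, AMYR3) lines.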

[2] = biological target: T2, human amylin receptor (calcitonin receptor co-expressed with receptor activity modifying protein, RAMP3) (hAMYR3) (Homo sapiens, UniProt O60896+P30988); assay: cAMP production in 1321N1 cells with stable recombinant expression of human amylin receptor (hAMYR3); assay type: cell-based; details: for Ratio (selectivity hAMYR vs hCTR, ratio of EC50 values at the two receptors): EC50 hCTR / EC50 hAMYR3; for EC50: cAMP, 1321N1 cells, assay buffer with 0.1% BSA, read-out: EC50 (pM) hAMYR3
T2 construct: expressed in transfected cells
T2 sequence (P30988 25-474): T1 sequence (P30988 25-474)
T2 sequence (O60896 24-148 partner): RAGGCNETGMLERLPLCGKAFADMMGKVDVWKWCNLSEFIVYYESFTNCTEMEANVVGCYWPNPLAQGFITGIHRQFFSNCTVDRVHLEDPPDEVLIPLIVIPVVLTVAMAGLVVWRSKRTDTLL
Procedure, shortened: as §1

[3] = in vivo; details: male, Sprague-Dawley, rat, 20 nmol/kg

CC[C@H](C)[C@H](NC(=O)[C@@H]1CCCN1C(=O)CNC(=O)[C@H](Cc1ccccc1)NC(=O)[C@H](CC(N)=O)NC(=O)C(C)(C)NC(=O)[C@H](CO)NC(=O)[C@H](CO)NC(=O)[C@H](Cc1c[nH]cn1)NC(=O)[C@@H](NC(=O)[C@H](CC(C)C)NC(=O)[C@H](Cc1ccccc1)NC(=O)[C@H](CC(N)=O)NC(=O)[C@H](C)NC(=O)[C@H](CC(C)C)NC(=O)[C@H](CCCNC(=N)N)NC(=O)[C@H](CCC(N)=O)NC(=O)[C@@H](NC(=O)[C@H](C)NC(=O)[C@@H]1CSSC[C@H](NC(=O)[C@@H](N)CCCCNC(=O)CC[C@H](NC(=O)CCCCCCCCCCCCCCCCC(=O)O)C(=O)O)C(=O)N[C@@H](CC(N)=O)C(=O)N[C@@H]([C@@H](C)O)C(=O)N[C@@H](C)C(=O)N[C@@H]([C@@H](C)O)C(=O)N1)[C@@H](C)O)C(C)C)C(=O)N[C@@H](CC(C)C)C(=O)N1CCC[C@H]1C(=O)N1CCC[C@H]1C(=O)N[C@H](C(=O)N[C@@H](CC(N)=O)C(=O)N[C@H](C(=O)NCC(=O)N[C@@H](CO)C(=O)N[C@@H](CCCNC(=N)N)C(=O)N[C@H](C(=O)N[C@@H](Cc1ccc(O)cc1)C(N)=O)[C@@H](C)O)C(C)C)[C@@H](C)O [Peptide 64, K(γE-C18diacid)[CNTATC]ATQRLANFLVHSS(Aib)NFGPILPPTNVGSRTY-amide] (H-K([γGlu-C18 diacid])CNTATCATQRLANFLVHSS[Aib]NFGPILPPTNVGSRTY-NH2; disulfide 2-7; N-terminus assumed)
EC50 [1]: 1280 pM
Ratio (selectivity hAMYR vs hCTR, ratio of EC50 values at the two receptors) [2]: 9
EC50 [2]: 149 pM
half-life ([3]; iv): 6 h
half-life ([3]; sc): 5 h

CC[C@H](C)[C@H](NC(=O)[C@@H]1CCCN1C(=O)CNC(=O)[C@H](Cc1ccccc1)NC(=O)[C@H](CC(N)=O)NC(=O)C(C)(C)NC(=O)[C@H](CO)NC(=O)[C@H](CO)NC(=O)[C@H](Cc1c[nH]cn1)NC(=O)[C@@H](NC(=O)[C@H](CC(C)C)NC(=O)[C@H](Cc1ccccc1)NC(=O)[C@H](CC(N)=O)NC(=O)[C@H](C)NC(=O)[C@H](CC(C)C)NC(=O)[C@H](CCCNC(=N)N)NC(=O)[C@H](CCC(N)=O)NC(=O)[C@@H](NC(=O)[C@H](C)NC(=O)[C@@H]1CSSC[C@H](NC(=O)[C@H](CCCCN)NC(=O)[C@@H](N)CCCCNC(=O)CC[C@H](NC(=O)CCCCCCCCCCCCCCCCC(=O)O)C(=O)O)C(=O)N[C@@H](CC(N)=O)C(=O)N[C@@H]([C@@H](C)O)C(=O)N[C@@H](C)C(=O)N[C@@H]([C@@H](C)O)C(=O)N1)[C@@H](C)O)C(C)C)C(=O)N[C@@H](CC(C)C)C(=O)N1CCC[C@H]1C(=O)N1CCC[C@H]1C(=O)N[C@H](C(=O)N[C@@H](CCCNC(=N)N)C(=O)N[C@H](C(=O)NCC(=O)N[C@@H](CO)C(=O)N[C@@H](CC(N)=O)C(=O)N[C@H](C(=O)N[C@@H](Cc1ccc(O)cc1)C(N)=O)[C@@H](C)O)C(C)C)[C@@H](C)O [Peptide 69, K(γE-C18diacid)K[CNTATC]ATQRLANFLVHSS(Aib)NFGPILPPTRVGSNTY-amide] (H-K([γGlu-C18 diacid])KCNTATCATQRLANFLVHSS[Aib]NFGPILPPTRVGSNTY-NH2; disulfide 3-8)
EC50 [1]: 1570 pM
Ratio (selectivity hAMYR vs hCTR, ratio of EC50 values at the two receptors) [2]: 10
EC50 [2]: 164 pM
half-life ([3]; iv): 6.3 h
half-life ([3]; sc): 8.5 h
